Measurements from patent publication EP0439320A1, “Erectile dysfunction treatment” (YAMANOUCHI PHARMACEUTICAL CO. LTD., priority 1990, dated 1991).
No end group written: not given here.

Experiments:
[1] = Acute toxicity test in mice; details: mouse, in vivo, single dose, 2 weeks observation, read-out: LD50 (95% confidence limits)
Experimental: (§1) The acute toxicity of compound (I) salt was evaluated using ICR mice and F344 rats.
(§2) compound (I) was dissolved in dimethylsulfoxide, and the same amount of Macrogol 400 (trade name) was added, and then distilled water for injection was added thereto to provide a solution of predetermined concentration. The solution was injected once each test, intravenously or subcutaneously, at a rate of 10-20 ml/kg, the maximum concentration of the administered solution being 12 mg/ml and 25 mg/ml respectively. The animals were kept under observation for 2 weeks. LD₅₀ values were determined by the up and down method (Probit method) using 5 animals.

[2] = system: penis cavernous smooth muscle of pigs; assay: Relaxation of isolated pig cavernous smooth muscle strip precontracted with noradrenaline (organ bath, tension recorded); details: for Time until prior response restored: contractile response to noradrenaline
Experimental: The pig and humans cavernous smooth muscle specimens are placed in an organ bath, and the tension is recorded. […] Work was also conducted with reference compounds in the porcine tissue, measuring the contractile response to noradrenaline.

[3] = system: human cavernous smooth muscle strip; assay: Relaxation of isolated human cavernous smooth muscle strip contracted with noradrenaline (organ bath); parameters: species or system humans; details: dose 10^-7 M, contracted with noradrenaline 2 x 10^-5 M, read-out: Inhibiting effect
Experimental: The relaxing effect of compound (I) on isolated specimens of penis cavernous smooth muscle of pigs (smooth muscle strips obtained from slaughtered boards) and of humans was tested by the following method. The pig and humans cavernous smooth muscle specimens are placed in an organ bath, and the tension is recorded. In the case of human cavernous smooth muscle strip, the relaxatory effect was evaluated. The specimen was contracted with a noradrenaline dose of 2 x 10⁻⁵ M and was treated with compound (I) at a dose of 10⁻⁷ M. In Table 2, the result for human tissue is shown.

[4] = system: penis erection (tumescence) and its firmness (rigidity); assay: Tumescence and rigidity after intracorporeal injection in anesthetized monkeys; format: in vivo, monkeys (Cynogos or Vervet); details: 0.1 g injected into the corpus cavernosum; evaluated 5 to 120 min after injection; data only in Fig. 1
Experimental: Tumescence and rigidity after intracorporeal injection of compound (I) were evaluated for monkeys.
Anesthetized monkeys (Cynogos or Vervet), 4-6 kg body weight, were used for the test.
The animal was anesthetized with ketamine and 0.1 g of compound (I) was injected in solution into the corpus cavernosum with a tourniquet at the base of the penis; the animal was then under observation and changes in tumescence and rigidity were noted and plotted. The tourniquet was removed 5 min after the injection.
Manual and visual evaluation of tumescence and rigidity was made 5, 10, 15, 20, 30, 60 and 120 min after injection.
The activity of compound (I) (dose: 0.1 g) on penis erection (tumescence) and firmness (rigidity) in the anesthetized monkeys is shown in Fig. 1.

[5] = Acute toxicity test in rats; details: rat, in vivo, F344 rats, single dose, 2 weeks observation, read-out: LD50 (95% confidence limits)
Experimental: as §1, §2

Q: Which LD50 at 336 h ([1]; iv, Female) does the source give for `CCOc1ccccc1OCCNC(C)Cc1ccc(OC)c(S(N)(=O)=O)c1` (stereo not drawn) [Compound (I), 5-[2-[2-(2-ethoxyphenoxy)ethylamino]-2-methylethyl] -2-methoxybenzene sulfonamide] here?
A: 103 mg/kg

Q: And the LD50 at 336 h ([1]; iv, Male)?
A: 98 mg/kg

Q: What about the LD50 at 336 h ([1]; sc, subcutaneous, Female) of the same molecule?
A: 275 mg/kg

Q: What about the LD50 at 336 h ([1]; sc, subcutaneous, Male) of the same molecule?
A: 254 mg/kg

Q: And the “full response seen (contractile response to noradrenaline)” value ([2]; antagonist dose 10^-8 M, at 165 min, noradrenaline 10^-6 to 10^-8 M)?
A: At 165 min 60% of full response seen

Q: What about the inhibition at 0.1 µM [3] of the same molecule?
A: 100%

Q: What about the “Effect on penis erection (tumescence) and firmness (rigidity)” value [4] of the same molecule?
A: excellent effects of potent penis erection, tumescence and rigidity with long lasting action

Q: And the LD50 at 336 h ([5]; iv, intravenous, Female)?
A: 78 mg/kg

Q: What about the LD50 at 336 h ([5]; iv, intravenous, Male) of the same molecule?
A: 70 mg/kg

Q: And the LD50 at 336 h ([5]; sc, subcutaneous, Female)?
A: 347 mg/kg

Q: And the LD50 at 336 h ([5]; sc, subcutaneous, Male)?
A: 395 mg/kg

Q: Which “Time until prior response restored” value ([2]; antagonist dose 2 x 10^-4 M) does the source give for `COc1ccc(Cc2nccc3cc(OC)c(OC)cc23)cc1OC` [Papaverine] here?
A: 45 min

Q: With `Cc1ccc(N(CC2=NCCN2)c2cccc(O)c2)cc1` [Phentolamine] as the molecule, how does the “Time until prior response restored” value ([2]; antagonist dose 7 x 10^-7 M) read?
A: 150 min

Q: Which “Time until prior response restored” value ([2]; antagonist dose 10^-6 M) does the source give for `COc1cc2nc(N3CCN(C(=O)c4ccco4)CC3)nc(N)c2cc1OC` [Prazocin] here?
A: 160 min

Q: With “vasoactive intestinal peptide (HSDAVFTDNYTRLRKQMAVKKYLNSILN; ends and bridges not checked; UniProt P01282 125-152, looked up) [VIP (vasoactive intestinal peptide)]” as the molecule, how does the “Time until prior response restored” value ([2]; antagonist dose 10^-7 M) read?
A: 45 min
